# Results from ChEMBL document CHEMBL2010722, “Structure-activity relationship study of beta-carboline derivatives as haspin kinase inhibitors” (Bioorg Med Chem Lett, 2012).
# How the values were obtained:
# [1] = molecular target: Serine/threonine-protein kinase Nek2 (Homo sapiens) (UniProt P51955); test: Inhibition of NEK2 at 10 uM
# [2] = molecular target: NUAK family SNF1-like kinase 1 (Homo sapiens) (UniProt O60285); test: Inhibition of NuaK1 at 10 uM
# [3] = molecular target: Fibroblast growth factor receptor 3 (Homo sapiens) (UniProt P22607); test: Inhibition of FGFR3 at 10 uM
# [4] = molecular target: AMP-activated protein kinase (AMPK) alpha-1/beta-1/gamma-1 (Homo sapiens) (UniProt P54619+Q9Y478+Q13131); test: Inhibition of AMPKalpha1/beta1/gamma1 at 10 uM; format: protein-complex assay
# [5] = molecular target: Tyrosine-protein kinase Mer (Homo sapiens) (UniProt Q12866); test: Inhibition of MER at 10 uM
# [6] = molecular target: Dual specificity tyrosine-phosphorylation-regulated kinase 2 (Homo sapiens) (UniProt Q92630); test: Inhibition of DYRK2 at 10 uM
# [7] = molecular target: Protein kinase C beta type (Homo sapiens) (UniProt P05771); test: Inhibition of PKCbeta2 at 10 uM
# [8] = molecular target: Dual specificity protein kinase CLK2 (Homo sapiens) (UniProt P49760); test: Inhibition of CLK2 at 10 uM
# [9] = molecular target: Muscle, skeletal receptor tyrosine-protein kinase (Homo sapiens) (UniProt O15146); test: Inhibition of MUSK at 10 uM
# [10] = molecular target: Serine/threonine-protein kinase WNK1 (Homo sapiens) (UniProt Q9H4A3); test: Inhibition of WNK1 at 10 uM
# [11] = molecular target: Dual specificity mitogen-activated protein kinase kinase 2 (Homo sapiens) (UniProt P36507); test: Inhibition of MAP2K2 at 10 uM
# [12] = molecular target: Mitogen-activated protein kinase 3 (Homo sapiens) (UniProt P27361); test: Inhibition of Erk1 at 10 uM
# [13] = molecular target: Serine/threonine-protein kinase PLK1 (Homo sapiens) (UniProt P53350); test: Inhibition of PLK1 at 10 uM
# [14] = molecular target: Ribosomal protein S6 kinase beta-2 (Homo sapiens) (UniProt Q9UBS0); test: Inhibition of p70S6Kb at 10 uM
# [15] = molecular target: cGMP-dependent protein kinase 2 (Homo sapiens) (UniProt Q13237); test: Inhibition of CGK2 at 10 uM
# [16] = molecular target: Serine/threonine-protein kinase Nek4 (Homo sapiens) (UniProt P51957); test: Inhibition of NEK4 at 10 uM
# [17] = molecular target: Serine/threonine-protein kinase Chk1 (Homo sapiens) (UniProt O14757); test: Inhibition of CHK1 at 10 uM
# [18] = molecular target: Insulin-like growth factor 1 receptor (Homo sapiens) (UniProt P08069); test: Inhibition of IGF1R at 10 uM
# [19] = molecular target: Ephrin type-B receptor 3 (Homo sapiens) (UniProt P54753); test: Inhibition of EPHB3 at 10 uM
# [20] = molecular target: Sphingosine kinase 1 (Homo sapiens) (UniProt Q9NYA1); test: Inhibition of SPHK1 at 10 uM
# [21] = molecular target: Homeodomain-interacting protein kinase 1 (Homo sapiens) (UniProt Q86Z02); test: Inhibition of HIPK1 at 10 uM
# [22] = molecular target: Tyrosine-protein kinase Yes (Homo sapiens) (UniProt P07947); test: Inhibition of YES at 10 uM
# [23] = molecular target: Dual specificity mitogen-activated protein kinase kinase 3 (Homo sapiens) (UniProt P46734); test: Inhibition of MAP2K3 at 10 uM
# [24] = molecular target: SRSF protein kinase 1 (Homo sapiens) (UniProt Q96SB4); test: Inhibition of SRPK1 at 10 uM
# [25] = system: Fibroblast growth factor receptor 3 (Homo sapiens), P22607 [K650E]; test: Inhibition of FGFR3 K650E mutant at 10 uM
# [26] = molecular target: Mitogen-activated protein kinase 13 (Homo sapiens) (UniProt O15264); test: Inhibition of p38delta at 10 uM
# [27] = molecular target: Mitogen-activated protein kinase kinase kinase kinase 4 (Homo sapiens) (UniProt O95819); test: Inhibition of HGK at 10 uM
# [28] = molecular target: Insulin receptor (Homo sapiens) (UniProt P06213); test: Inhibition of INSR at 10 uM
# [29] = molecular target: SRSF protein kinase 3 (Homo sapiens) (UniProt Q9UPE1); test: Inhibition of MSSK1 (SRPK3) at 10 uM
# [30] = molecular target: Serine/threonine-protein kinase LATS2 (Homo sapiens) (UniProt Q9NRM7); test: Inhibition of LATS2 at 10 uM
# [31] = molecular target: Tyrosine-protein kinase ABL1 (Homo sapiens) (UniProt P00519); test: Inhibition of ABL at 10 uM
# [32] = molecular target: Non-receptor tyrosine-protein kinase TYK2 (Homo sapiens) (UniProt P29597); test: Inhibition of TYK2 at 10 uM
# [33] = molecular target: Dual specificity protein kinase CLK3 (Homo sapiens) (UniProt P49761); test: Inhibition of CLK3 at 10 uM
# [34] = molecular target: 3-phosphoinositide-dependent protein kinase 1 (Homo sapiens) (UniProt O15530); test: Inhibition of PDK1 at 10 uM
# [35] = molecular target: [Pyruvate dehydrogenase (acetyl-transferring)] kinase isozyme 2, mitochondrial (Homo sapiens) (UniProt Q15119); test: Inhibition of PDHK2 at 10 uM
# [36] = molecular target: Hepatocyte growth factor receptor (Homo sapiens) (UniProt P08581); test: Inhibition of MET at 10 uM
# [37] = molecular target: Homeodomain-interacting protein kinase 2 (Homo sapiens) (UniProt Q9H2X6); test: Inhibition of HIPK2 at 10 uM
# [38] = molecular target: Vascular endothelial growth factor receptor 3 (Homo sapiens) (UniProt P35916); test: Inhibition of FLT4 at 10 uM
# [39] = molecular target: AMP-activated protein kinase, AMPK (Homo sapiens) (UniProt P54646+O43741+P54619+Q9UGJ0+Q9Y478+Q13131+Q9UGI9); test: Inhibition of AMPKalpha2/beta1/gamma1 at 10 uM; format: protein-complex assay
# [40] = molecular target: PI3-kinase p110-alpha/p85-alpha (Homo sapiens) (UniProt P27986+P42336); test: Inhibition of PIK3CA/PIK3R1 at 10 uM; format: protein-complex assay
# [41] = molecular target: Mitogen-activated protein kinase kinase kinase 11 (Homo sapiens) (UniProt Q16584); test: Inhibition of MLK3 at 10 uM
# [42] = molecular target: Phosphorylase b kinase gamma catalytic chain, liver/testis isoform (Homo sapiens) (UniProt P15735); test: Inhibition of PHKG2 at 10 uM
# [43] = molecular target: Receptor tyrosine-protein kinase erbB-2 (Homo sapiens) (UniProt P04626); test: Inhibition of HER2 at 10 uM
# [44] = molecular target: Tyrosine-protein kinase receptor UFO (Homo sapiens) (UniProt P30530); test: Inhibition of AXL at 10 uM
# [45] = molecular target: Dual specificity tyrosine-phosphorylation-regulated kinase 1B (Homo sapiens) (UniProt Q9Y463); test: Inhibition of DYRK1B at 10 uM
# Sequence of Homeodomain-interacting protein kinase 1 (Homo sapiens) (Q86Z02 whole entry, looked up): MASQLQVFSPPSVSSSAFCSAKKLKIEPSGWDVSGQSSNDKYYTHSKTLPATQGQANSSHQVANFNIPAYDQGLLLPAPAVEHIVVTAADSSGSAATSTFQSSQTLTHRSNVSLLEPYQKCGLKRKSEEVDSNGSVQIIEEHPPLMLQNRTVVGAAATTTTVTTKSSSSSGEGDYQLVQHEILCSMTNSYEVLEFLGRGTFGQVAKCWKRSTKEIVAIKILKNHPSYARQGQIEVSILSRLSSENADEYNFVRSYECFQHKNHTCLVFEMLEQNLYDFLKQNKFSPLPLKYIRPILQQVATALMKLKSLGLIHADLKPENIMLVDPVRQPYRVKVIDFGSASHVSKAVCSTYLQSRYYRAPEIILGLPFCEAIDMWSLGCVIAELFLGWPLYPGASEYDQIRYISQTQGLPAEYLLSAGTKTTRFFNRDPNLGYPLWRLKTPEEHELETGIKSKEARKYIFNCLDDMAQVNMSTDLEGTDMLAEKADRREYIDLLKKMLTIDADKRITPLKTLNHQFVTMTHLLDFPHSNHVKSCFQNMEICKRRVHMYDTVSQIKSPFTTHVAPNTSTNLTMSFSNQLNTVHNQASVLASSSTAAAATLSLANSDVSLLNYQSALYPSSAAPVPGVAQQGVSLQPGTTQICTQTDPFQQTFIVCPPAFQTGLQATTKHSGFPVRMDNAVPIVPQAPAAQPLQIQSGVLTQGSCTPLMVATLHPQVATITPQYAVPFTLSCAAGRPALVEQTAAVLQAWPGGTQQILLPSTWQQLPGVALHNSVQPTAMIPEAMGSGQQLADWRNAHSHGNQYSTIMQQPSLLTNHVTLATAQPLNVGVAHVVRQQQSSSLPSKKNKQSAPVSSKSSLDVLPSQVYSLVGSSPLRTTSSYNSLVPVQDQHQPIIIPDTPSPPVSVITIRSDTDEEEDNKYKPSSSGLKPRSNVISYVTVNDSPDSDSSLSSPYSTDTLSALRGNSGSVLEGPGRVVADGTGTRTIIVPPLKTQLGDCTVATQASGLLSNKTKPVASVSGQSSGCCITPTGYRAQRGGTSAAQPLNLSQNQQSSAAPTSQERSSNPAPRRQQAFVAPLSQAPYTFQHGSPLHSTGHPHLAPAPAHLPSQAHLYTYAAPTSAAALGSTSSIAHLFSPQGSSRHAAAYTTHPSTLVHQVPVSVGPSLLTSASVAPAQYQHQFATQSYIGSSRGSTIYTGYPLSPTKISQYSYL
# Sequence of Tyrosine-protein kinase ABL1 (Homo sapiens) (P00519 whole entry): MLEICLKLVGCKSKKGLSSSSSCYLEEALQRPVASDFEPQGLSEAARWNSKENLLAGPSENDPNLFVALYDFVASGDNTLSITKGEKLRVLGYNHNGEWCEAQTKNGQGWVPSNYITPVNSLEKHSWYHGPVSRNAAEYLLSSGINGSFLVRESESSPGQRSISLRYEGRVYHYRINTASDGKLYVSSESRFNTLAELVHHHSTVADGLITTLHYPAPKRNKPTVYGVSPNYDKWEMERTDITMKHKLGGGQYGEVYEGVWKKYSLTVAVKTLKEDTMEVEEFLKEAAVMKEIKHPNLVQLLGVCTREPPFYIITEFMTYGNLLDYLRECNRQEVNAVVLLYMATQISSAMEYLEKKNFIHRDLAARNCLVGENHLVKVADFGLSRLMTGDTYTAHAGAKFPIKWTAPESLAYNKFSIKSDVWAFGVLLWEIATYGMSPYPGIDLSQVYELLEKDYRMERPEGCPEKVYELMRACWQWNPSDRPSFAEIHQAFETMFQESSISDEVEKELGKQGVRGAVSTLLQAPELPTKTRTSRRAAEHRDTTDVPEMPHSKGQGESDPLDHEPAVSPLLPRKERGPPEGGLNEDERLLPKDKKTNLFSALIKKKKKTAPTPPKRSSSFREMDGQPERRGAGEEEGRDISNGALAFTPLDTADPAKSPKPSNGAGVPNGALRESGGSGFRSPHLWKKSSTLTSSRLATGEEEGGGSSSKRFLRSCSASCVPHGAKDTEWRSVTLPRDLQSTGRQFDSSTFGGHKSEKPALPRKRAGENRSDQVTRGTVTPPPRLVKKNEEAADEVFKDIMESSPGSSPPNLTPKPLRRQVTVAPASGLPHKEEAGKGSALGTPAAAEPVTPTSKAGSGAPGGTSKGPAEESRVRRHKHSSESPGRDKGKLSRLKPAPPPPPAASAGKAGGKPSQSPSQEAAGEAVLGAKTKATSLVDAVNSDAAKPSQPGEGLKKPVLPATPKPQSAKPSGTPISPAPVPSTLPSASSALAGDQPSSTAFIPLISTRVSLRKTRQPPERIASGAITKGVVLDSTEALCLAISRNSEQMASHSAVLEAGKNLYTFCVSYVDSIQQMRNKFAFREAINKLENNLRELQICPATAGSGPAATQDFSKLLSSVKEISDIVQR
# Sequence of Phosphorylase b kinase gamma catalytic chain, liver/testis isoform (Homo sapiens) (P15735 whole entry, canonical isoform): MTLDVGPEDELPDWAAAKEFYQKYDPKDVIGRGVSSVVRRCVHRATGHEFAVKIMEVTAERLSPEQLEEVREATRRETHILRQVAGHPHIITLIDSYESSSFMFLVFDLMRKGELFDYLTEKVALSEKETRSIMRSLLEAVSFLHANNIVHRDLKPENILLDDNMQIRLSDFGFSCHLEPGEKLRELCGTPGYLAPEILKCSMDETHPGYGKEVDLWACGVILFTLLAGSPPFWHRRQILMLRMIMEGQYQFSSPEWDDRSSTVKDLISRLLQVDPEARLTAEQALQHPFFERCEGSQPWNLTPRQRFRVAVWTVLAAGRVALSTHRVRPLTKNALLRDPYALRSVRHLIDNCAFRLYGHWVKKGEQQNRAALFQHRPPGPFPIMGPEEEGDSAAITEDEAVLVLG
# Sequence of Receptor tyrosine-protein kinase erbB-2 (Homo sapiens) (P04626 whole entry): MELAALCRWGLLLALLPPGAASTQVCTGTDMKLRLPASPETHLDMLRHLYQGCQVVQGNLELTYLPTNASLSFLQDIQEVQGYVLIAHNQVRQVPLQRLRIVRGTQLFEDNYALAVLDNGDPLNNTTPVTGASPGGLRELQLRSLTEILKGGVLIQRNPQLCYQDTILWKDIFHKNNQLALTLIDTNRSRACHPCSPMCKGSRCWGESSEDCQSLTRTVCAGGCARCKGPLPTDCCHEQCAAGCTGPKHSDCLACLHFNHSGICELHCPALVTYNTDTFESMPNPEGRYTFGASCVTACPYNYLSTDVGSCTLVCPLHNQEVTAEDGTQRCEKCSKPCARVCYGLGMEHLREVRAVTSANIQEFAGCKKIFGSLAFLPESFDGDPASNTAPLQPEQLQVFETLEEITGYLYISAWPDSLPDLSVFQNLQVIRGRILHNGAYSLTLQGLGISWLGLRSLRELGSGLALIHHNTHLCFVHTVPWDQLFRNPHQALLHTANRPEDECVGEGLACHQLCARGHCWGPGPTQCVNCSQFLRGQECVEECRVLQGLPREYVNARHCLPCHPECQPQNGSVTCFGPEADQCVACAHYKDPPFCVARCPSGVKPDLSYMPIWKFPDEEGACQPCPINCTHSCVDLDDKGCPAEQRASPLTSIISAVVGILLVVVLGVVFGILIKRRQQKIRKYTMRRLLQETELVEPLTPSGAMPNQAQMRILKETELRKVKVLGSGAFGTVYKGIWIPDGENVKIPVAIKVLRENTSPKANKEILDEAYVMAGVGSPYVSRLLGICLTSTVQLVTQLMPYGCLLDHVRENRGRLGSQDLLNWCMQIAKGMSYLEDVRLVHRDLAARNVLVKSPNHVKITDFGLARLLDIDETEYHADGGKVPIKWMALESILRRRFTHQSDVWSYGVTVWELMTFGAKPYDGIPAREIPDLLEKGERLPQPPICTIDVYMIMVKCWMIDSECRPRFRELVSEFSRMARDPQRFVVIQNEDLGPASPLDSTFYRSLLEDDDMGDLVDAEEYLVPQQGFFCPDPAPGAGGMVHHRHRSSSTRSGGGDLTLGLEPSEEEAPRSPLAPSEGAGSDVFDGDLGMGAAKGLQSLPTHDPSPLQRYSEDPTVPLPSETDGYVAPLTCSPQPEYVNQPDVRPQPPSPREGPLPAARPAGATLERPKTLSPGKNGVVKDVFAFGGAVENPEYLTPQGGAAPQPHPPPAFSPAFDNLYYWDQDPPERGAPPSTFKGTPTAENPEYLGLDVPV
# Sequence of Ribosomal protein S6 kinase beta-2 (Homo sapiens) (Q9UBS0 whole entry): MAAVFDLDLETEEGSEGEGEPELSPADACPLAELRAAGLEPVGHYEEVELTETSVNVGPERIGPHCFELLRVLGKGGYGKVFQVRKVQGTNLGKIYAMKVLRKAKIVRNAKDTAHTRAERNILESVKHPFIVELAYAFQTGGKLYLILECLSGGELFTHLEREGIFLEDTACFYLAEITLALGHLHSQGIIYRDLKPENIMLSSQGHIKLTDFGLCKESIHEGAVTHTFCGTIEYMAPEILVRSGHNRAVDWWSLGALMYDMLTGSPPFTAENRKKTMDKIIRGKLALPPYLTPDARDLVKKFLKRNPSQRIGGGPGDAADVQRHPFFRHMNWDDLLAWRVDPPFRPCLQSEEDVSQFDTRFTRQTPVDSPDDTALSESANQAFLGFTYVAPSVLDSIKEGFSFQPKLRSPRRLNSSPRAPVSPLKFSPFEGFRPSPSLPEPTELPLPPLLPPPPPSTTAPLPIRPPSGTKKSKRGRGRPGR
# Sequence of Dual specificity mitogen-activated protein kinase kinase 2 (Homo sapiens) (P36507 whole entry): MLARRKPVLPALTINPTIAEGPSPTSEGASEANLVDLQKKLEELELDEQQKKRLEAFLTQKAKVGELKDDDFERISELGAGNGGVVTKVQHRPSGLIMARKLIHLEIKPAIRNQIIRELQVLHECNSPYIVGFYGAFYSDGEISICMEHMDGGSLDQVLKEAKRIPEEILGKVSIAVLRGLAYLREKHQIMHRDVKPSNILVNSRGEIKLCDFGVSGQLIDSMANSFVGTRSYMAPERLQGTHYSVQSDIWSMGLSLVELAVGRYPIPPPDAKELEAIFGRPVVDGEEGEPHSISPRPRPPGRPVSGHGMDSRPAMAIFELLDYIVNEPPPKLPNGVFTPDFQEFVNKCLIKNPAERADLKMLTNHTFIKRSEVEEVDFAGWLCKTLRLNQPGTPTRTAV
compound,measurement,setting,value
COc1ccc2c3ccnc(C(F)(F)F)c3n(CCCCN)c2c1,inhibition,[1],1%
same,inhibition,[2],30%
same,inhibition,[3],1%
same,inhibition,[4],16%
same,inhibition,[5],35%
same,inhibition,[6],86%
same,inhibition,[7],28%
same,inhibition,[8],99%
same,inhibition,[9],42%
same,inhibition,[10],5%
same,inhibition,[11],6%
same,inhibition,[12],2%
same,inhibition,[13],0%
same,inhibition,[14],75%
same,inhibition,[15],91%
same,inhibition,[16],4%
same,inhibition,[17],25%
same,inhibition,[18],0%
same,inhibition,[19],0%
same,inhibition,[20],0%
same,inhibition,[21],41%
same,inhibition,[22],6%
same,inhibition,[23],38%
same,inhibition,[24],7%
same,inhibition,[25],3%
same,inhibition,[26],25%
same,inhibition,[27],62%
same,inhibition,[28],0%
same,inhibition,[29],7%
same,inhibition,[30],26%
same,inhibition,[31],3%
same,inhibition,[32],15%
same,inhibition,[33],37%
same,inhibition,[34],0%
same,inhibition,[35],0%
same,inhibition,[36],4%
same,inhibition,[37],53%
same,inhibition,[38],9%
same,inhibition,[39],16%
same,inhibition,[40],13%
same,inhibition,[41],3%
same,inhibition,[42],26%
same,inhibition,[43],0%
same,inhibition,[44],34%
same,inhibition,[45],98%
